From publication PMC10491595, “Activation of the integrated stress response by inhibitors of its kinases” (Nature Communications, 2023)

What was measured:
GCN2 [1] = target: T1, GCN2 (Homo sapiens, UniProt Q9P2K8); experiment: in vitro kinase assay; format: biochemical
T1 construct: gene EIF2AK4; GST-GCN2 fragment (192-1024)
T1 sequence (Q9P2K8 192-1024): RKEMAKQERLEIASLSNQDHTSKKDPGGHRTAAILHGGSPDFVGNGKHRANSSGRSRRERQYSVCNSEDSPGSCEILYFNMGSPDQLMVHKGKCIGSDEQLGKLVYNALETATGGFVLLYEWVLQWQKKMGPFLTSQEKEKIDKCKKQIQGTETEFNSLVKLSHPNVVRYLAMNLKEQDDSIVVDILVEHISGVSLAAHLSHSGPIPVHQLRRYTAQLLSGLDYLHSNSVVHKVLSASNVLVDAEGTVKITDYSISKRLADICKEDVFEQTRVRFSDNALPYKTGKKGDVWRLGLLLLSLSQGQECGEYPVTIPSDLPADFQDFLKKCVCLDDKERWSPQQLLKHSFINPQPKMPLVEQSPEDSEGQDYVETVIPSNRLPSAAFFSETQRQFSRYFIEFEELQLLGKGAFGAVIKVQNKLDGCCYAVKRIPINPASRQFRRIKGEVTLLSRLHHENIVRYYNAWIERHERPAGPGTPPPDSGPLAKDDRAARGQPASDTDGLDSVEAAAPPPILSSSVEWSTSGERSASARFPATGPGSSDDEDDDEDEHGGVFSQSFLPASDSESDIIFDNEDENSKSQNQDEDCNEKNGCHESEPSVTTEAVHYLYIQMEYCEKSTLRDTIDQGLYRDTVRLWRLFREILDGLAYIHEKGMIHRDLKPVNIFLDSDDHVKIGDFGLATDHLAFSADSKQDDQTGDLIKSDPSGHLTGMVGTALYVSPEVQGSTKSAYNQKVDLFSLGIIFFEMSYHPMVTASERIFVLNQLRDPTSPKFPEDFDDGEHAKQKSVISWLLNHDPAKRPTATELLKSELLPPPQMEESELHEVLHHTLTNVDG

PERK = target: T2, PERK (Homo sapiens, UniProt Q9NZJ5); experiment: PERK activation (mobility shift) immunoblot in tunicamycin-treated HeLa cells; format: cell-based
T2 construct: gene EIF2AK3
T2 sequence (Q9NZJ5 30-1116): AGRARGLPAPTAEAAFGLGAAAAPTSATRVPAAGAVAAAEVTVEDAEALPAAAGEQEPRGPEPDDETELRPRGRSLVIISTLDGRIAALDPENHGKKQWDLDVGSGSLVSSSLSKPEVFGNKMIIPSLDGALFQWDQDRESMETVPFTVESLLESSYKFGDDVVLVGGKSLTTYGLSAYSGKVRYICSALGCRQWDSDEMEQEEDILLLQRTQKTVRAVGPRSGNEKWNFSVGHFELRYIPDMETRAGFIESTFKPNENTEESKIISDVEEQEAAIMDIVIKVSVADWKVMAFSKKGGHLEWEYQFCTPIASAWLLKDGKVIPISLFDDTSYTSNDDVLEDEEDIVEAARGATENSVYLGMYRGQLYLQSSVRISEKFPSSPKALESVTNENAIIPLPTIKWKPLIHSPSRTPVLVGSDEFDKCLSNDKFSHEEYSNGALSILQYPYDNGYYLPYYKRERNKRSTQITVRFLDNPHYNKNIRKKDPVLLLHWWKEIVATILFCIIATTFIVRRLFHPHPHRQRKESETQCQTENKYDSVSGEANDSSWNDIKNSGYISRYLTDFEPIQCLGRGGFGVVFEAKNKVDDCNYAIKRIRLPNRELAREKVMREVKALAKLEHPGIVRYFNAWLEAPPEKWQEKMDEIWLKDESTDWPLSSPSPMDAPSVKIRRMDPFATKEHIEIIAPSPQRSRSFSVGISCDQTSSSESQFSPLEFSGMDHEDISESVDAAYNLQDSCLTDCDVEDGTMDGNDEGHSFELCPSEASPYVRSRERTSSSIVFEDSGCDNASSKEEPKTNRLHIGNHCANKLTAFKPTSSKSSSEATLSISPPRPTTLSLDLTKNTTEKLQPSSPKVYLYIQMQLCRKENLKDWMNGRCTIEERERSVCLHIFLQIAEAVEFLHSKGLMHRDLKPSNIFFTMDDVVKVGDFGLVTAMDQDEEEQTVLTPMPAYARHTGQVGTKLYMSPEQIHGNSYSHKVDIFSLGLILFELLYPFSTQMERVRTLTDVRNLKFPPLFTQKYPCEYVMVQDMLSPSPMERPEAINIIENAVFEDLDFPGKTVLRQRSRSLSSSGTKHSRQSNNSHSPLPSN

GCN2 [2] = target: T1, GCN2; experiment: in vitro kinase assay (Gaussian activation then inhibition); thermal shift of kinase domain; competition with A92; format: biochemical
[3] = target: the molecule itself; experiment: SEC-MALS; GST-GCN2 fragment at ~1.7 mg/ml, incubated 20 min at 30 °C with DMSO or 50 µM GSK'157; Superdex 200 Increase 10/300 GL, 10 mM HEPES, 150 mM NaCl, 1 mM TCEP with DMSO or 50 µM GSK'157; same result in both conditions

## Nc1ncnc2c1ncn2[C@@H]1O[C@H](CO[P@](=O)(O)O[P@](=O)(O)NP(=O)(O)O)[C@@H](O)[C@H]1O [AMP-PNP]
GCN2 [1]
  in vitro kinase assay: ~ 250 μM

## Cc1cccc(CC(=O)N2CCc3c2ccc(-c2cn(C)c4ncnc(N)c24)c3F)n1 [GSK'157, GSK2656157]
PERK
  PERK activation (mobility shift) immunoblot in tunicamycin-treated HeLa cells: 0.02 to 10 µM
GCN2 [2]
  in vitro kinase assay (Gaussian activation then inhibition); thermal shift of ki: ~ 5 μM

B1: in-house recombinant GST-GCN2 fragment (192-1024) (domain or fragment, UniProt Q9P2K8 192-1024, looked up)
chain: T1 sequence (Q9P2K8 192-1024)
notes: GCN2 (eIF2alpha kinase 4), residues 192-1024; MW of the GST fusion ~135 kDa as printed; eluted with glutathione, no cleavage of GST is described; GST itself is known to dimerise, so the dimer may owe to the tag (my surmise); also called recombinant GCN2; source: Sf9 (baculovirus), purified (Glutathione Sepharose 4B, Superdex 200); not shown: GST, N-terminal, kept
[3]
  stoichiometry N: 2
